In US9233086B2 (THE REGENTS OF THE UNIVERSITY OF MICHIGAN, priority 2010, dated 2016):
Where two headings read alike, the source gives them in different places. *1 amine or outer side, *2 acyl side, *3 side chain or, on linkers, in order; H or OH if unused. Where a SMILES comes first, the peptide text is derived from it. [ ]: non-standard residue; d: D form. The star is where a group is joined. NHPhenethyl = c1ccc(CCN*)cc1; Isobutyryl = CC(C)C(=O)*; Ac4c = NC1(C(=O)O)CCC1; Deg = CCC(N)(CC)C(=O)O; PhAc = O=C(Cc1ccccc1)*; CO = O=C([*:1])[*:2]; Butyryl = CCCC(=O)*; Bz = O=C(c1ccccc1)*; NHPh = c1ccc(N*)cc1; For = O=C*

Target: WDR5 (Homo sapiens (Human), UniProt P61964)
Test: FP based competitive binding assay to WDR5
Details: for Ki: read-out: Ki ± SD; for times less potent than Ac-3mer: ratio vs Ac-3mer; for fold decrease of binding affinity relative to Ac-10mer: ratio vs Ac-10mer
Description: Another aspect of the invention is development of a Fluorescent Polarization (FP) based competitive binding assay. […] Next, the millipolarization (mP) values were measured at different time points in order to determine equilibrium duration and stability.
Accordingly, the optimal protein concentrations for the competitive assay was investigated.
All the FP based experiments were performed in MICROFLUOR® 2 Black, “U” Bottom, 96-well Microtiter Plates (ThermoSci.) and FP was measured as mP units in a microplate reader (Tecan Ultra) with excitation at 485 nm and emission at 530 nm. The Kd of the tracers and the IC50 value of the inhibitors were calculated using GraphPad Prism 4 software.
The binding affinities of the synthetic peptides shown in the study were measured using this competitive binding assay. A pre-incubated complex solution of WDR5Δ23 and the tracer in 120 μl assay buffer were added to dilutions of the test compound in 5 μl DMSO, giving final concentrations of WDR5Δ23 and the tracer of 4 nM and 0.6 nM, respectively. […] The plates were incubated with shaking at room temperature. The mP values were measured after five hours of incubation and Ki values were calculated using the equation described previously(31).

[1] = read-out: Binding Affinity to WDR5 (IC50 ± SD), Table 5 peptidomimetics
[2] = 4 nM WDR5Δ23, 0.6 nM 10mer-Thr-FAM tracer, Ki calculated by equation of ref. 31
[3] = 4 nM WDR5Δ23, 0.6 nM 10mer-Thr-FAM tracer, read-out: IC50 ± SD

Row | Compound | IC50 [1] | other results
1 | Ac-ARAEVH-NH2 [Ac-6mer, Ac-ARAEVH-NH2] | – | IC50 (read-out: IC50 ± SD): 0.4 ± 0.1 µM; Ki: 0.09 ± 0.02 µM
2 | CC(=O)N[C@@H](C)C(=O)N[C@@H](CCCN)C(=O)N[C@@H](C)C(N)=O [Compound 2B] | > 1 µM | –
3 | COC(=O)[C@H](C)NC(=O)[C@H](CCCNC(=N)N)NC(=O)[C@H](C)NC(C)=O [Δ2c, Ac-ARA-COOCH3] (Ac-Ala-Arg-Ala-OMe) | – | Ki [2]: 1.6 ± 0.2 µM; IC50 [3]: 7.3 ± 0.8 µM; times less potent than Ac-3mer: 10
4 | CC(=O)NC1(C(=O)N[C@@H](CCCNC(=N)N)C(=O)N[C@H](C(N)=O)C(C)C)CCCCC1 [Compound 4D] | < 1 µM | –
5 | CC(=O)N[C@@H](C)C(=O)N[C@@H](CCCNC(=N)N)C(=O)N(C)[C@@H](C)C(N)=O [Δ1, Ac-AR-(N—Me)A-NH2] | – | binding to WDR5 (in words): complete loss of its binding to WDR5
6 | CC(=O)N[C@@H](C)C(=O)N[C@@H](CCCNC(=N)N)C(=O)N[C@H](C(=O)N[C@@H](CCCCN)C(=O)N[C@@H](CCC(N)=O)C(=O)N[C@H](C(=O)N[C@@H](C)C(=O)N[C@@H](CCCNC(=N)N)C(=O)N[C@@H](CCCCN)C(=O)N[C@@H](CO)C(N)=O)[C@@H](C)O)[C@@H](C)O [Ac-H3-10mer] | – | IC50 [3]: 0.006 ± 0.002 µM; fold increase of binding affinity to WDR5 on acetylation of the free amino group (vs corresponding unacetylated H3 peptide): greater than 10,000
7 | C[C@H](NC(=O)[C@H](CCCNC(=N)N)NC(=O)[C@H](C)NC=O)C(N)=O [CHO-3mer, CHO-ARA-NH2] (For-Ala-Arg-Ala-NH2) | – | Ki [2]: 3.2 ± 0.3 µM; IC50 [3]: 14.9 ± 1.4 µM; times less potent than Ac-3mer: 25
8 | C[C@H](N)C(=O)N[C@@H](CCCNC(=N)N)C(=O)N[C@H](C(=O)N[C@@H](CCCCN)C(=O)N[C@@H](CCC(N)=O)C(=O)N[C@H](C(=O)N[C@@H](C)C(=O)N[C@@H](CCCNC(=N)N)C(=O)N[C@@H](CCCCN)C(=O)N[C@@H](CO)C(N)=O)[C@@H](C)O)[C@@H](C)O [Compound H3-10mer, reference compound] | – | Ki (4 nM WDR5Δ23, 0.6 nM 10mer-Thr-FAM tracer, Ki calculated by equation of ref. 31, listed as wild-type H3 peptide): 15 µM; IC50 [3]: 70 ± 6 µM
9 | CCCC[C@H](NC(=O)[C@H](C)NC(C)=O)C(=O)N[C@@H](C)C(N)=O [Compound 2A] | > 1 µM | –
10 | CC(=O)N[C@@H](C)C(=O)N[C@@H](CCCNC(=N)N)C(=O)N[C@@H](C)C(=O)N(C)C [Δ2b, Ac-ARA-CONMe2] (Ac-Ala-Arg-Ala-NMe2) | – | Ki [2]: 6.5 ± 1.2 µM; IC50 [3]: 30 ± 5 µM; times less potent than Ac-3mer: 50
11 | Ac-ARAEVHL-NH2 [Ac-7mer, Ac-ARAEVHL-NH2] | – | fold decrease of binding affinity relative to Ac-10mer: 10; IC50 (read-out: IC50 ± SD): 0.16 ± 0.03 µM; Ki: 0.03 ± 0.01 µM
12 | CC(=O)NC1(C(=O)N[C@@H](CCCNC(=N)N)C(=O)N[C@H](C(N)=O)C(C)C)CCCC1 [Compound 4C] | < 1 µM | –
13 | CC(=O)NC1(C(=O)N[C@@H](CCCNC(=N)N)C(=O)N[C@H](C(N)=O)C(C)C)CC1 [Compound 4A] | < 1 µM | –
14 | C[C@H](N)C(=O)N[C@@H](CCCNC(=N)N)C(=O)N[C@@H](C)C(N)=O [Compound H2N-3mer, H2N-ARA-NH2] (H-Ala-Arg-Ala-NH2) | – | binding to WDR5 (in words): does not bind to WDR5 up to the concentrations tested
15 | CC(=O)N[C@@H](C)C(=O)N[C@@H](CCCCN)C(=O)N[C@@H](C)C(N)=O [Compound 2C] (Ac-Ala-Lys-Ala-NH2) | > 1 µM | –
16 | CC(=O)N[C@@H](C)C(=O)N[C@H](C(=O)N[C@@H](C)C(N)=O)C1CCN(C(=N)N)CC1 [Compound 2G] | > 10 µM | –
17 | Ac-RAEVHLRKS-NH2 [Ac-9mer] | – | fold decrease of binding affinity relative to Ac-10mer: 1500
18 | Ac-SARAEVHLRKS-NH2 [Ac-11mer] | – | Ki [2]: 0.2 ± 0.03 µM; IC50 [3]: 1.04 ± 0.14 µM

Now from value to compound, other results behind:

Row | IC50 [1] | Compound | other results
19 | > 10 µM | CCC(CC)(NC(=O)C(C)C)C(=O)N[C@@H](CCCNC(=N)N)C(=O)NCCc1ccccc1 [Compound 11L] (Isobutyryl-[Deg]-Arg-NHPhenethyl) | –
20 | > 1 µM | C[C@H](NC(=O)[C@H](CCCNC(=N)N)NC(=O)[C@H](C)NC(=O)c1ccccc1)C(N)=O [Compound 9H] (Bz-Ala-Arg-Ala-NH2) | –
21 | > 25 µM | C[C@H](NC(=O)[C@H](CCCNC(=N)N)NC(=O)[C@H](C)NC(=O)Cc1ccccc1)C(N)=O [Compound 9I] (PhAc-Ala-Arg-Ala-NH2) | –
22 | < 10 µM | CCC(CC)(NC(=O)C(C)C)C(=O)N[C@@H](CCCNC(=N)N)C(=O)NC(C(C)C)C(C)C [Compound 11J] | –
23 | < 1 µM | CC[C@H](NC(=O)[C@H](CCCNC(=N)N)NC(=O)C1(NC(C)=O)CCC1)C(=O)NCc1ccccc1 [Compound 8A] | –
24 | < 5 µM | C[C@H](NC(=O)[C@H](CCCNC(=N)N)NC(=O)[C@H](C)NC(=O)C1CC1)C(N)=O [Compound 9E] | –
25 | < 30 µM | CCC(CC)(NC(=O)C(C)C)C(=O)N[C@@H](CCCNC(=N)N)C(=O)N[C@H](C)c1ccccc1 [Compound 11F] | –
26 | < 1 µM | CC(C)C(=O)N[C@@H](C)C(=O)N[C@@H](CCCNC(=N)N)C(=O)N[C@@H](C)C(N)=O [Compound 9A] (Isobutyryl-Ala-Arg-Ala-NH2) | –
27 | < 1 µM | CC[C@H](NC(=O)[C@H](CCCNC(=N)N)NC(=O)C1(NC(C)=O)CCC1)C(=O)NC(c1ccccc1)c1ccccc1 [Compound 8B] | –
28 | < 10 µM | CNC(=O)N[C@@H](C)C(=O)N[C@@H](CCCNC(=N)N)C(=O)N[C@@H](C)C(N)=O [Compound 9K] ({NHMe-CO}-Ala-Arg-Ala-NH2) | –
29 | < 5 µM | CCCC(=O)N[C@@H](C)C(=O)N[C@@H](CCCNC(=N)N)C(=O)N[C@@H](C)C(N)=O [Compound 9C] (Butyryl-Ala-Arg-Ala-NH2) | –
30 | < 100 µM | C[C@H](NC(=O)[C@H](CCCNC(=N)N)NC(=O)[C@H](C)NC(=O)N(C)C)C(N)=O [Compound 9J] ({NMe2-CO}-Ala-Arg-Ala-NH2) | –
31 | < 1 µM | CC[C@H](NC(=O)[C@H](CCCNC(=N)N)NC(=O)C(C)(C)NC(C)=O)C(N)=O [Compound 6A] | –
32 | < 10 µM | CCC(CC)(NC(=O)C(C)C)C(=O)N[C@@H](CCCNC(=N)N)C(=O)NC1CCCCC1 [Compound 11E] | –
33 | < 1 µM | CC(C)C(=O)NC1(C(=O)N[C@@H](CCCNC(=N)N)C(=O)NC2(C(=O)NC(c3ccccc3)c3ccccc3)CCCC2)CCC1 [Compound 10B] | –
34 | < 1 µM | CC(=O)NC1(C(=O)N[C@@H](CCCNC(=N)N)C(=O)N[C@H](C(N)=O)[C@@H](C)O)CCC1 [Compound 6F] (Ac-[Ac4c]-Arg-Thr-NH2) | –
35 | < 1 µM | CC(=O)N[C@@H](C)C(=O)N[C@@H](CCCNC(=N)N)C(=O)N[C@@H](C)C(=O)NC(c1ccccc1)c1ccccc1 [Compound 7F] | –
36 | < 1 µM | CC(=O)N[C@@H](C)C(=O)N[C@@H](CCCNC(=N)N)C(=O)N[C@@H](C)C(=O)NC1CCCCC1 [Compound 7C] | –

Row | IC50 [1] | Compound | other results
37 | > 5 µM | CCC(CC)(NC(=O)c1ccccc1)C(=O)N[C@H](CCCNC(=N)N)C(=O)NC1(C(N)=O)CCCC1 [Compound 10F] | –
38 | < 10 µM | CCC(CC)(NC(=O)C(C)C)C(=O)N[C@@H](CCCNC(=N)N)C(=O)Nc1ccccc1 [Compound 11C] (Isobutyryl-[Deg]-Arg-NHPh) | –
39 | < 1 µM | CC(=O)N[C@H](C(=O)N[C@@H](CCCNC(=N)N)C(=O)NC1(C(N)=O)CCCC1)C(C)C [Compound 5C] | –
40 | < 3 µM | CC[C@H](C)NC(=O)[C@H](CCCNC(=N)N)NC(=O)C(CC)(CC)NC(=O)C(C)C [Compound 11A] | –
41 | > 1 µM | CCC(CC)(NC(=O)C(C)C)C(=O)N[C@@H](CCCNC(=N)N)C(=O)NCCCc1ccccc1 [Compound 11M] | –
42 | > 5 µM | CCC(CC)(NC(=O)c1ccccc1)C(=O)N[C@@H](CCCNC(=N)N)C(=O)NC1(C(=O)NC(c2ccccc2)c2ccccc2)CCCC1 [Compound 10I] | –
43 | < 1 µM | CC[C@H](NC(=O)[C@H](CCCNC(=N)N)NC(=O)C1(NC(C)=O)CCC1)C(N)=O [Compound 6D] | –
44 | < 20 µM | CCC(CC)(NC(=O)C(C)C)C(=O)N[C@H](CCCNC(=N)N)C(=O)NC1(C(N)=O)CCCC1 [Compound 10D] | –
45 | < 10 µM | CCC(CC)(NC(=O)C(C)C)C(=O)N[C@@H](CCCNC(=N)N)C(=O)NCCCCc1ccccc1 [Compound 11N] | –
46 | < 10 µM | CCC(CC)(NC(=O)C(C)C)C(=O)N[C@@H](CCCNC(=N)N)C(=O)NC1CCCC1 [Compound 11I] | –
47 | < 10 µM | C[C@H](NC(=O)[C@H](CCCNC(=N)N)NC(=O)[C@H](C)NC(=O)C1CCC1)C(N)=O [Compound 9F] | –
48 | < 10 µM | CC(=O)N[C@H](C(=O)N[C@@H](CCCNC(=N)N)C(=O)NC1(C(N)=O)CC1)C(C)C [Compound 5A] | –
49 | < 10 µM | CC(=O)N[C@H](C(=O)N[C@@H](CCCNC(=N)N)C(=O)NC1(C(N)=O)CCCCC1)C(C)C [Compound 5D] | –
50 | > 1 µM | CCC(CC)(NC(=O)C(C)C)C(=O)N[C@@H](CCCNC(=N)N(C)C)C(=O)NC1(C(N)=O)CCCC1 [Compound 10G] | –
51 | < 1 µM | CCC(CC)NC(=O)[C@H](C)NC(=O)[C@H](CCCNC(=N)N)NC(=O)[C@H](C)NC(C)=O [Compound 7B] | –
52 | < 1 µM | CC(=O)NC1(C(=O)N[C@@H](CCCNC(=N)N)C(=O)NC2(C(N)=O)CCCC2)CCC1 [Compound 6E] | –
53 | < 1 µM | CCC(CC)(NC(=O)C(C)C)C(=O)N[C@@H](CCCNC(=N)N)C(=O)NC1(C(N)=O)CCCC1 [Compound 10C] | –
54 | < 1 µM | CCC(CC)NC(=O)[C@H](CCCNC(=N)N)NC(=O)C(CC)(CC)NC(=O)C(C)C [Compound 11B] | –
